The text below walks through data of ChEMBL document CHEMBL3992550, “An epigenetic modifier induces production of (10'S)-verruculide B, an inhibitor of protein tyrosine phosphatases by Phoma sp. nov. LG0217, a fungal endophyte of Parkinsonia microphylla” (Bioorg Med Chem, 2017).

pIC50: −log10 of the molar value.

The target in experiment [1] is T1, Tyrosine-protein phosphatase non-receptor type 1 (Homo sapiens, UniProt P18031).
T1 sequence (P18031 whole entry): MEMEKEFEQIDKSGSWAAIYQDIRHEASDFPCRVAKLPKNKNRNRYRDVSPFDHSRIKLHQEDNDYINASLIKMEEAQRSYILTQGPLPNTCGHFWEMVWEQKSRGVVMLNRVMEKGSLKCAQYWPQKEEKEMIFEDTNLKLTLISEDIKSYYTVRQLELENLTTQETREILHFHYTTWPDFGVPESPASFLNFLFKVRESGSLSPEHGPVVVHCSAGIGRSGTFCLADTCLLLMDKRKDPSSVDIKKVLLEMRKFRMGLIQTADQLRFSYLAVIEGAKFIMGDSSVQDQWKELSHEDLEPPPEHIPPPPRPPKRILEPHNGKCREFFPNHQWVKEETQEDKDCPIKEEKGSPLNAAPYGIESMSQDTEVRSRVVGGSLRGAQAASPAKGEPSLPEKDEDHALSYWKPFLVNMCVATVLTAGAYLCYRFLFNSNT
Description: Inhibition of PTP1B (unknown origin) expressed in Escherichia coli BL21(DE3) using pNPP as substrate preincubated for 15 mins followed by substrate addition measured after 10 mins.

Experiment [2] concerns the target Tyrosine-protein phosphatase non-receptor type 6 (Homo sapiens, UniProt P29350). Description: Inhibition of SHP1 (unknown origin) expressed in Escherichia coli BL21(DE3) using pNPP as substrate preincubated for 15 mins followed by substrate addition measured after 10 mins.
The target in experiment [3] is T2, Tyrosine-protein phosphatase non-receptor type 2 (Homo sapiens, UniProt P17706).
T2 sequence (P17706 whole entry): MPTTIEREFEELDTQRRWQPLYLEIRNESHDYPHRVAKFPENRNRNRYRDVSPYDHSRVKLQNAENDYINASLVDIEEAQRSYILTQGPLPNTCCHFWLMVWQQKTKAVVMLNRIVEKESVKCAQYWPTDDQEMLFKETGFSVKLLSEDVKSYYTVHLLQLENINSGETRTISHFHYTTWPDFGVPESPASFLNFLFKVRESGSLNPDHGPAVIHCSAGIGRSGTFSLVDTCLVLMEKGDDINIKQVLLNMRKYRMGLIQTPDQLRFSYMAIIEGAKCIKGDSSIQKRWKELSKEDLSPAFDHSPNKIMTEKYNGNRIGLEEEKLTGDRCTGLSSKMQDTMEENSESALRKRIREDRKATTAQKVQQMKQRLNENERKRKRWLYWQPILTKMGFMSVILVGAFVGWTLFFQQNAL
Briefly: Inhibition of TCPTP (unknown origin) expressed in Escherichia coli BL21(DE3) using pNPP as substrate preincubated for 15 mins followed by substrate addition measured after 10 mins.

Chain of Tyrosine-protein phosphatase non-receptor type 6 (P29350 whole entry): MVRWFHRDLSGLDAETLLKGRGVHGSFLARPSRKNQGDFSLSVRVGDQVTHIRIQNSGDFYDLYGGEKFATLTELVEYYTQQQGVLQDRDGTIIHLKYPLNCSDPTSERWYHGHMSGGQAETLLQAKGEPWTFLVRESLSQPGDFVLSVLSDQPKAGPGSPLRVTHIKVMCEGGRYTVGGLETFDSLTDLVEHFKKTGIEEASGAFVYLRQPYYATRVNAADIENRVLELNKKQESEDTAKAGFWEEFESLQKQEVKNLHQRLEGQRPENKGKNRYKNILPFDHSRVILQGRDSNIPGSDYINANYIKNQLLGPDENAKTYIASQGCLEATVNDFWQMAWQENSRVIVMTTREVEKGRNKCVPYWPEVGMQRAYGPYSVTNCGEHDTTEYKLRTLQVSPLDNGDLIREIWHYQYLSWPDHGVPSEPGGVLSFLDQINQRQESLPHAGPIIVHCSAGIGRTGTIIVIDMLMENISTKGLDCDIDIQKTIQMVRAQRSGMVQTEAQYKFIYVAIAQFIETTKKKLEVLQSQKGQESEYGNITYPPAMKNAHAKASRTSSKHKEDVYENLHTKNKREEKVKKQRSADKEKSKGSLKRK

A word on the pIC50: it is the IC50 on a negative log10 scale, so that one unit is a factor of ten. A high value points to a small IC50. Take `C/C(=C\Cc1c(O)cc(O)c2c1C[C@@H](C)OC2=O)CC/C=C(\C)CC[C@H](O)C(C)(C)O`: the pIC50 in experiment [1] is 4.86; in experiment [2] it was 5.06; in experiment [3], 4.78.
